In the NIST ThermoML archive (doi:10.1016/j.jct.2013.12.022):
± gives the expanded uncertainty stated by the source.

Columns and labels:
[1] = 100 kPa, Liquid; for viscosity: Cone and plate viscometry; for mass density: Vibrating tube method
[2] = wn = mass fraction of the nth substance listed; details: 100 kPa, Liquid, w1 = 0.8465; for viscosity: Cone and plate viscometry; for mass density: Vibrating tube method

| SMILES | viscosity ([1]; 288.15 K) | mass density ([1]; 288.15 K) | viscosity ([1]; 293.15 K) | mass density ([1]; 293.15 K) | viscosity ([1]; 298.15 K) | mass density ([1]; 298.15 K) | viscosity ([1]; 303.15 K) | mass density ([1]; 303.15 K) | viscosity ([1]; 308.15 K) | mass density ([1]; 308.15 K) | viscosity ([1]; 313.15 K) | mass density ([1]; 313.15 K) | viscosity ([1]; 318.15 K) | mass density ([1]; 318.15 K) | viscosity ([1]; 323.15 K) | mass density ([1]; 323.15 K) | viscosity ([1]; 328.15 K) | mass density ([1]; 328.15 K) | viscosity ([1]; 333.15 K) | mass density ([1]; 333.15 K) | also measured |
| --- | --- | --- | --- | --- | --- | --- | --- | --- | --- | --- | --- | --- | --- | --- | --- | --- | --- | --- | --- | --- | --- |
| CC(CC(C)(C)C)CP(=O)([O-])CC(C)CC(C)(C)C.CCCCCCCCCCCCCC[P+](CCCCCC)(CCCCCC)CCCCCC | 1953 ± 180 mPa·s | 890.86 ± 4.3 kg/m3 | 1446.3 ± 130 mPa·s | 887.72 ± 4.3 kg/m3 | 1058.2 ± 91 mPa·s | 884.55 ± 4.3 kg/m3 | 782.72 ± 65 mPa·s | 881.54 ± 4.2 kg/m3 | 587.62 ± 47 mPa·s | 878.58 ± 4.2 kg/m3 | 447.95 ± 34 mPa·s | 875.62 ± 4.2 kg/m3 | 346.95 ± 26 mPa·s | 872.67 ± 4.2 kg/m3 | 272.37 ± 20 mPa·s | 869.72 ± 4.1 kg/m3 | 217.4 ± 15 mPa·s | 866.77 ± 4.1 kg/m3 | 175.07 ± 12 mPa·s | 863.87 ± 4.1 kg/m3 | mass density ([1]; 338.15 K): 860.99 ± 4.1 kg/m3; mass density ([1]; 343.15 K): 858.1 ± 4 kg/m3; mass density ([1]; 348.15 K): 855.22 ± 4 kg/m3; viscosity ([1]; 353.15 K): 80.99 ± 5.3 mPa·s; mass density ([1]; 353.15 K): 852.33 ± 4 kg/m3; mass density ([1]; 358.15 K): 849.44 ± 4 kg/m3; mass density ([1]; 363.15 K): 846.56 ± 3.9 kg/m3; viscosity ([1]; 373.15 K): 42.79 ± 2.8 mPa·s; viscosity ([1]; 393.15 K): 24.53 ± 1.6 mPa·s; viscosity ([1]; 413.15 K): 15.44 ± 1 mPa·s; viscosity ([1]; 433.15 K): 10.17 ± 0.66 mPa·s |
| CC(CC(C)(C)C)CP(=O)([O-])CC(C)CC(C)(C)C.CCCCCCCCCCCCCC[P+](CCCCCC)(CCCCCC)CCCCCC + O |  |  |  |  |  |  |  |  |  |  |  |  |  |  |  |  |  |  |  |  | viscosity ([2]; 288.15 K): 286.96 ± 21 mPa·s; mass density ([2]; 288.15 K): 921.09 ± 3.5 kg/m3; viscosity ([2]; 293.15 K): 211.13 ± 15 mPa·s; mass density ([2]; 293.15 K): 917.76 ± 3.5 kg/m3; viscosity ([2]; 298.15 K): 156.74 ± 11 mPa·s; mass density ([2]; 298.15 K): 914.4 ± 3.5 kg/m3; viscosity ([2]; 303.15 K): 119.54 ± 7.9 mPa·s; mass density ([2]; 303.15 K): 911.03 ± 3.5 kg/m3; viscosity ([2]; 308.15 K): 93.22 ± 6.1 mPa·s; mass density ([2]; 308.15 K): 907.66 ± 3.4 kg/m3; viscosity ([2]; 313.15 K): 74.08 ± 4.8 mPa·s; mass density ([2]; 313.15 K): 904.29 ± 3.4 kg/m3; viscosity ([2]; 318.15 K): 60.01 ± 3.8 mPa·s; mass density ([2]; 318.15 K): 900.95 ± 3.4 kg/m3; viscosity ([2]; 323.15 K): 49.03 ± 3.1 mPa·s; mass density ([2]; 323.15 K): 897.66 ± 3.4 kg/m3; viscosity ([2]; 328.15 K): 40.7 ± 2.6 mPa·s; mass density ([2]; 328.15 K): 894.18 ± 3.3 kg/m3; viscosity ([2]; 333.15 K): 34.16 ± 2.2 mPa·s; mass density ([2]; 333.15 K): 890.61 ± 3.3 kg/m3 |
| CCCCCCCCCCCC [dodecane] | 1.58 ± 0.1 mPa·s | 753.43 ± 0.59 kg/m3 | 1.47 ± 0.09 mPa·s | 749.81 ± 0.58 kg/m3 | 1.35 ± 0.08 mPa·s | 746.18 ± 0.58 kg/m3 | 1.24 ± 0.08 mPa·s | 742.55 ± 0.58 kg/m3 | 1.14 ± 0.07 mPa·s | 738.91 ± 0.57 kg/m3 | 1.06 ± 0.07 mPa·s | 735.26 ± 0.57 kg/m3 | 0.99 ± 0.06 mPa·s | 731.61 ± 0.57 kg/m3 | 0.93 ± 0.06 mPa·s | 727.95 ± 0.57 kg/m3 | 0.87 ± 0.05 mPa·s | 724.29 ± 0.56 kg/m3 | 0.82 ± 0.05 mPa·s | 720.61 ± 0.56 kg/m3 |  |
